Results reported in ChEMBL document CHEMBL4649991.
“And” between values parts separate entries of the source, which are not always exact repeats. Equal entries are not always repeated.

How the values were obtained:
[1] = target: Transcription initiation factor TFIID subunit 1 (Homo sapiens) (UniProt P21675); conditions: Compound concentration 10.0 uM, Protein concentration 2.0 uM
[2] = target: Bromodomain adjacent to zinc finger domain protein 2B (Homo sapiens) (UniProt Q9UIF8); conditions: Compound concentration 10.0 uM, Protein concentration 2.0 uM
[3] = target: Bromodomain-containing protein 4 (Homo sapiens) (UniProt O60885); test: Alphascreen assay. Domain start/stop: N44-E168; conditions: Compound concentration 25.0 uM, Protein concentration 6.25 uM
[4] = target: PH-interacting protein (Homo sapiens) (UniProt Q8WWQ0); conditions: Compound concentration 10.0 uM, Protein concentration 2.0 uM
[5] = target: Chromatin remodeling regulator CECR2 (Homo sapiens) (UniProt Q9BXF3); conditions: Compound concentration 10.0 uM, Protein concentration 2.0 uM
[6] = target: T1, Peregrin (Homo sapiens) (UniProt P55201); conditions: Compound concentration 10.0 uM, Protein concentration 2.0 uM
T1 sequence (whole entry): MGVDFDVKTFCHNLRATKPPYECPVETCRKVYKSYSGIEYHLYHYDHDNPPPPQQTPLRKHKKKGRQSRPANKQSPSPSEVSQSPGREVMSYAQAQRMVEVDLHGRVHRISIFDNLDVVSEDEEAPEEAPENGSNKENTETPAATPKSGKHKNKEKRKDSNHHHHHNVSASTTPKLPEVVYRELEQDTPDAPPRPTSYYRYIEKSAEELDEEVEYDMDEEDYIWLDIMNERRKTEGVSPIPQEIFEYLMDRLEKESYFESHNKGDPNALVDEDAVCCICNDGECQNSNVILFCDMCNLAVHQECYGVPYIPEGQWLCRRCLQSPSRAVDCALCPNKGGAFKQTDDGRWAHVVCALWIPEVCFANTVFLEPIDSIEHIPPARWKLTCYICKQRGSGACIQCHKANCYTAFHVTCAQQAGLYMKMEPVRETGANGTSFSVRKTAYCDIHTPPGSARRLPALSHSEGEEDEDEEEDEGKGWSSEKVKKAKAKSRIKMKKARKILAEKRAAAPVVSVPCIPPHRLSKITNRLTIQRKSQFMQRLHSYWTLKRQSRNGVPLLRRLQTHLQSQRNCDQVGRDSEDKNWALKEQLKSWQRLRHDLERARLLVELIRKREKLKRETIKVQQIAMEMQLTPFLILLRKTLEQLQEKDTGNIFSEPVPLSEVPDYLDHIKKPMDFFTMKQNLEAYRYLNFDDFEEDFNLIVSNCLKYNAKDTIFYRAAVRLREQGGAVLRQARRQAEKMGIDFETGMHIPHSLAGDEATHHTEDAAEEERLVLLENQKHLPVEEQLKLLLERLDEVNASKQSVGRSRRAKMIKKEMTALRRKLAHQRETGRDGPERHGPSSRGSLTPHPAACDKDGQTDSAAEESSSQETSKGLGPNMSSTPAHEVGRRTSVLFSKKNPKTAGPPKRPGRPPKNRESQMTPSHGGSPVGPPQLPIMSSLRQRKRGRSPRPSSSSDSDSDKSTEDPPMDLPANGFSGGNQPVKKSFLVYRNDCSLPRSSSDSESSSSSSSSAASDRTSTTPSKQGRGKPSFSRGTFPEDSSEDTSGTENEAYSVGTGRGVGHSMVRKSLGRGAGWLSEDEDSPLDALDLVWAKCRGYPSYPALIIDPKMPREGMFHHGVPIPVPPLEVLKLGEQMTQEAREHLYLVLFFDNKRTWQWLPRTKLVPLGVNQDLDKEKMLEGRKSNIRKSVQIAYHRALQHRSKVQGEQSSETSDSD

[7] = target: T1, Peregrin (Homo sapiens); conditions: Compound concentration 10.0 uM, Protein concentration 2.0 uM; remark: listed apart in the source
[8] = target: Bromodomain-containing protein 2 (Homo sapiens) (UniProt P25440); conditions: Compound concentration 10.0 uM, Protein concentration 2.0 uM
[9] = target: Bromodomain-containing protein 3 (Homo sapiens) (UniProt Q15059); conditions: Compound concentration 10.0 uM, Protein concentration 2.0 uM
[10] = target: Bromodomain-containing protein 2 (Homo sapiens) (UniProt P25440); conditions: Compound concentration 10.0 uM, Protein concentration 2.0 uM; remark: listed apart in the source
[11] = target: CREB-binding protein (Homo sapiens) (UniProt Q92793); conditions: Compound concentration 10.0 uM, Protein concentration 2.0 uM
[12] = target: Bromodomain and WD repeat-containing protein 3 (Homo sapiens) (UniProt Q6RI45); conditions: Compound concentration 10.0 uM, Protein concentration 2.0 uM
[13] = target: Bromodomain adjacent to zinc finger domain protein 2A (Homo sapiens) (UniProt Q9UIF9); conditions: Compound concentration 10.0 uM, Protein concentration 2.0 uM
[14] = target: Tyrosine-protein kinase BAZ1B (Homo sapiens) (UniProt Q9UIG0); conditions: Compound concentration 10.0 uM, Protein concentration 2.0 uM
[15] = target: Protein polybromo-1 (Homo sapiens) (UniProt Q86U86); conditions: Compound concentration 10.0 uM, Protein concentration 2.0 uM
[16] = target: Bromodomain-containing protein 9 (Homo sapiens) (UniProt Q9H8M2); test: Alphascreen assay. Domain start/stop: L14-Q143; conditions: Compound concentration 4.0 uM, Protein concentration 5.0 uM
[17] = target: ATPase family AAA domain-containing protein 2B (Homo sapiens) (UniProt Q9ULI0); conditions: Compound concentration 10.0 uM, Protein concentration 2.0 uM
[18] = target: SWI/SNF-related matrix-associated actin-dependent regulator of chromatin subfamily A member 4 (Homo sapiens) (UniProt P51532); conditions: Compound concentration 10.0 uM, Protein concentration 2.0 uM
[19] = target: Nuclear body protein SP140-like protein (Homo sapiens) (UniProt Q9H930); conditions: Compound concentration 10.0 uM, Protein concentration 2.0 uM
[20] = target: T1, Peregrin (Homo sapiens); test: Alphascreen assay. Domain start/stop: M626-G740; conditions: Protein concentration 50.0 uM
[21] = target: Transcription initiation factor TFIID subunit 1-like (Homo sapiens) (UniProt Q8IZX4); conditions: Compound concentration 10.0 uM, Protein concentration 2.0 uM
[22] = target: Protein polybromo-1 (Homo sapiens) (UniProt Q86U86); conditions: Compound concentration 10.0 uM, Protein concentration 2.0 uM; remark: listed apart in the source
[23] = target: Bromodomain-containing protein 1 (Homo sapiens) (UniProt O95696); conditions: Compound concentration 10.0 uM, Protein concentration 2.0 uM
[24] = target: Protein polybromo-1 (Homo sapiens) (UniProt Q86U86); conditions: Compound concentration 10.0 uM, Protein concentration 2.0 uM; remark: listed apart in the source
[25] = target: Nuclear body protein SP140 (Homo sapiens) (UniProt Q13342); conditions: Compound concentration 10.0 uM, Protein concentration 2.0 uM
[26] = target: Bromodomain and WD repeat-containing protein 1 (Homo sapiens) (UniProt Q9NSI6); conditions: Compound concentration 10.0 uM, Protein concentration 2.0 uM
[27] = target: Bromodomain testis-specific protein (Homo sapiens) (UniProt Q58F21); conditions: Compound concentration 10.0 uM, Protein concentration 2.0 uM
[28] = target: Chromatin remodeling regulator CECR2 (Homo sapiens) (UniProt Q9BXF3); conditions: Compound concentration 4.0 uM, Protein concentration 19.0 uM
[29] = target: Bromodomain testis-specific protein (Homo sapiens) (UniProt Q58F21); conditions: Compound concentration 10.0 uM, Protein concentration 2.0 uM; remark: listed apart in the source
[30] = target: ATPase family AAA domain-containing protein 2 (Homo sapiens) (UniProt Q6PL18); conditions: Compound concentration 10.0 uM, Protein concentration 2.0 uM
[31] = target: Histone-lysine N-methyltransferase 2A (Homo sapiens) (UniProt Q03164); conditions: Compound concentration 10.0 uM, Protein concentration 2.0 uM
[32] = target: Protein polybromo-1 (Homo sapiens) (UniProt Q86U86); conditions: Compound concentration 10.0 uM, Protein concentration 2.0 uM; remark: listed apart in the source
[33] = target: Transcription intermediary factor 1-alpha (Homo sapiens) (UniProt O15164); conditions: Compound concentration 10.0 uM, Protein concentration 2.0 uM
[34] = target: Bromodomain-containing protein 9 (Homo sapiens) (UniProt Q9H8M2); conditions: Compound concentration 10.0 uM, Protein concentration 2.0 uM
[35] = target: Bromodomain-containing protein 3 (Homo sapiens) (UniProt Q15059); conditions: Compound concentration 10.0 uM, Protein concentration 2.0 uM; remark: listed apart in the source
[36] = target: Histone acetyltransferase KAT2B (Homo sapiens) (UniProt Q92831); conditions: Compound concentration 10.0 uM, Protein concentration 2.0 uM
[37] = target: Transcription intermediary factor 1-beta (Homo sapiens) (UniProt Q13263); conditions: Compound concentration 10.0 uM, Protein concentration 2.0 uM
[38] = target: Protein polybromo-1 (Homo sapiens) (UniProt Q86U86); conditions: Compound concentration 10.0 uM, Protein concentration 2.0 uM; remark: listed apart in the source
[39] = target: Bromodomain-containing protein 4 (Homo sapiens) (UniProt O60885); conditions: Compound concentration 10.0 uM, Protein concentration 2.0 uM
[40] = target: Transcription initiation factor TFIID subunit 1 (Homo sapiens) (UniProt P21675); conditions: Compound concentration 10.0 uM, Protein concentration 2.0 uM; remark: listed apart in the source
[41] = target: Histone acetyltransferase p300 (Homo sapiens) (UniProt Q09472); conditions: Compound concentration 10.0 uM, Protein concentration 2.0 uM
[42] = target: E3 ubiquitin-protein ligase TRIM33 (Homo sapiens) (UniProt Q9UPN9); test: Thermal Shift Assay. Domain start/stop: D882-P1073; conditions: Compound concentration 10.0 uM, Protein concentration 2.0 uM
[43] = target: PH-interacting protein (Homo sapiens) (UniProt Q8WWQ0); conditions: Compound concentration 50.0 uM, Protein concentration 0.025 uM
[44] = target: Transcription initiation factor TFIID subunit 1-like (Homo sapiens) (UniProt Q8IZX4); conditions: Compound concentration 10.0 uM, Protein concentration 2.0 uM; remark: listed apart in the source
[45] = target: Bromodomain and PHD finger-containing protein 3 (Homo sapiens) (UniProt Q9ULD4); conditions: Compound concentration 10.0 uM, Protein concentration 2.0 uM
[46] = target: Bromodomain-containing protein 7 (Homo sapiens) (UniProt Q9NPI1); conditions: Compound concentration 10.0 uM, Protein concentration 2.0 uM
[47] = target: Protein polybromo-1 (Homo sapiens) (UniProt Q86U86); conditions: Compound concentration 10.0 uM, Protein concentration 2.0 uM; remark: listed apart in the source
[48] = target: SWI/SNF-related matrix-associated actin-dependent regulator of chromatin subfamily A member 2 (Homo sapiens) (UniProt P51531); conditions: Compound concentration 10.0 uM, Protein concentration 2.0 uM
[49] = target: Histone acetyltransferase KAT2A (Homo sapiens) (UniProt Q92830); conditions: Compound concentration 10.0 uM, Protein concentration 2.0 uM
[50] = target: Nucleosome-remodeling factor subunit BPTF (Homo sapiens) (UniProt Q12830); conditions: Compound concentration 10.0 uM, Protein concentration 2.0 uM
[51] = target: Histone-lysine N-methyltransferase ASH1L (Homo sapiens) (UniProt Q9NR48); conditions: Compound concentration 10.0 uM, Protein concentration 2.0 uM
[52] = target: Chromatin remodeling regulator CECR2 (Homo sapiens) (UniProt Q9BXF3); conditions: Compound concentration 10.0 uM, Protein concentration 2.0 uM; remark: listed apart in the source
[53] = target: Bromodomain adjacent to zinc finger domain protein 1A (Homo sapiens) (UniProt Q9NRL2); conditions: Compound concentration 10.0 uM, Protein concentration 2.0 uM
[54] = target: Nucleosome-remodeling factor subunit BPTF (Homo sapiens) (UniProt Q12830)
Description: Alphascreen assay. Domain start/stop: S2791-H2911

Chain of Protein polybromo-1 (Homo sapiens) (Q86U86 whole entry): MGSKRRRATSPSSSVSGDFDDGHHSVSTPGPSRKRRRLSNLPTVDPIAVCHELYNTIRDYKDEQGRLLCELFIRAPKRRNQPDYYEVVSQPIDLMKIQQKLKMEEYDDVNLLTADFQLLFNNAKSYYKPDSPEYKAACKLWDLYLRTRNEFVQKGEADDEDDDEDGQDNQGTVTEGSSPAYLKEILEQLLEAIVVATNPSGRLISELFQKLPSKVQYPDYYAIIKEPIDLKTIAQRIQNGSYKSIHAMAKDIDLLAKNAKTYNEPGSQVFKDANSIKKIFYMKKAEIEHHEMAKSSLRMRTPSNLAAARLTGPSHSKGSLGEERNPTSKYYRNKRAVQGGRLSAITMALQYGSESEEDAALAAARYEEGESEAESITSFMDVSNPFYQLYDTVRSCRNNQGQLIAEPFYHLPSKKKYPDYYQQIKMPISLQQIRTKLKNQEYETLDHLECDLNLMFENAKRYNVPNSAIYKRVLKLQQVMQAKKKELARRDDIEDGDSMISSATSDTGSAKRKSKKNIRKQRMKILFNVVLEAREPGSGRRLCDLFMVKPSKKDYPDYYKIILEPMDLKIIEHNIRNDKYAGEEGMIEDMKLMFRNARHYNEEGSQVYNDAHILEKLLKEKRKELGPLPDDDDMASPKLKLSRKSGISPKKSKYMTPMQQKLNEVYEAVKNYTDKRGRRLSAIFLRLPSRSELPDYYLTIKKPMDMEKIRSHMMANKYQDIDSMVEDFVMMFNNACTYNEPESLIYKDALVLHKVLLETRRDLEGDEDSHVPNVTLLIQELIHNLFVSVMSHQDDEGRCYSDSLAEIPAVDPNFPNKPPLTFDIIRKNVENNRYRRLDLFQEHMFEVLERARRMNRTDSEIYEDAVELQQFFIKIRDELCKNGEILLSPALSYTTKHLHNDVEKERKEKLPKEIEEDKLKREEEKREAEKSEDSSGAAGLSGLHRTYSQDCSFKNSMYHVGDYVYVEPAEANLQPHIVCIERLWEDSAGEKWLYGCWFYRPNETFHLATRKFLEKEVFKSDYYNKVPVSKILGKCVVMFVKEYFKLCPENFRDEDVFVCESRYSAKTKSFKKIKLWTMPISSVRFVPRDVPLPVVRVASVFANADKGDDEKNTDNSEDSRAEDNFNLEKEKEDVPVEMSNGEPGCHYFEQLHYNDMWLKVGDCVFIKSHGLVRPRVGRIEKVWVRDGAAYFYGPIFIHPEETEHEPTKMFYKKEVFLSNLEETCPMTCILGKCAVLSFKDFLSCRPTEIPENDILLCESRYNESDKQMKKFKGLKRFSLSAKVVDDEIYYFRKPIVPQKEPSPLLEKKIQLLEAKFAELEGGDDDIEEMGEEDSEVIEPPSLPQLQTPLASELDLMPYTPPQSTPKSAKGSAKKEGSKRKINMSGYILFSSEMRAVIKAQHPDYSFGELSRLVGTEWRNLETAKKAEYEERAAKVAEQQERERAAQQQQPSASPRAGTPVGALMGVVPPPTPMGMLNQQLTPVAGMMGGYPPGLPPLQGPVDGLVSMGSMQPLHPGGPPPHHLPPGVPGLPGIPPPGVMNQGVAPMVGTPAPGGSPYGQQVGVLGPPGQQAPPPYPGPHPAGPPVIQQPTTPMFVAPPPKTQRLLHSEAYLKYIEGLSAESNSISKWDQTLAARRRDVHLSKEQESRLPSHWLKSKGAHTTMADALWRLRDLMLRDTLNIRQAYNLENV
Chain of Chromatin remodeling regulator CECR2 (Homo sapiens) (Q9BXF3 whole entry, looked up, the tested form may be a part): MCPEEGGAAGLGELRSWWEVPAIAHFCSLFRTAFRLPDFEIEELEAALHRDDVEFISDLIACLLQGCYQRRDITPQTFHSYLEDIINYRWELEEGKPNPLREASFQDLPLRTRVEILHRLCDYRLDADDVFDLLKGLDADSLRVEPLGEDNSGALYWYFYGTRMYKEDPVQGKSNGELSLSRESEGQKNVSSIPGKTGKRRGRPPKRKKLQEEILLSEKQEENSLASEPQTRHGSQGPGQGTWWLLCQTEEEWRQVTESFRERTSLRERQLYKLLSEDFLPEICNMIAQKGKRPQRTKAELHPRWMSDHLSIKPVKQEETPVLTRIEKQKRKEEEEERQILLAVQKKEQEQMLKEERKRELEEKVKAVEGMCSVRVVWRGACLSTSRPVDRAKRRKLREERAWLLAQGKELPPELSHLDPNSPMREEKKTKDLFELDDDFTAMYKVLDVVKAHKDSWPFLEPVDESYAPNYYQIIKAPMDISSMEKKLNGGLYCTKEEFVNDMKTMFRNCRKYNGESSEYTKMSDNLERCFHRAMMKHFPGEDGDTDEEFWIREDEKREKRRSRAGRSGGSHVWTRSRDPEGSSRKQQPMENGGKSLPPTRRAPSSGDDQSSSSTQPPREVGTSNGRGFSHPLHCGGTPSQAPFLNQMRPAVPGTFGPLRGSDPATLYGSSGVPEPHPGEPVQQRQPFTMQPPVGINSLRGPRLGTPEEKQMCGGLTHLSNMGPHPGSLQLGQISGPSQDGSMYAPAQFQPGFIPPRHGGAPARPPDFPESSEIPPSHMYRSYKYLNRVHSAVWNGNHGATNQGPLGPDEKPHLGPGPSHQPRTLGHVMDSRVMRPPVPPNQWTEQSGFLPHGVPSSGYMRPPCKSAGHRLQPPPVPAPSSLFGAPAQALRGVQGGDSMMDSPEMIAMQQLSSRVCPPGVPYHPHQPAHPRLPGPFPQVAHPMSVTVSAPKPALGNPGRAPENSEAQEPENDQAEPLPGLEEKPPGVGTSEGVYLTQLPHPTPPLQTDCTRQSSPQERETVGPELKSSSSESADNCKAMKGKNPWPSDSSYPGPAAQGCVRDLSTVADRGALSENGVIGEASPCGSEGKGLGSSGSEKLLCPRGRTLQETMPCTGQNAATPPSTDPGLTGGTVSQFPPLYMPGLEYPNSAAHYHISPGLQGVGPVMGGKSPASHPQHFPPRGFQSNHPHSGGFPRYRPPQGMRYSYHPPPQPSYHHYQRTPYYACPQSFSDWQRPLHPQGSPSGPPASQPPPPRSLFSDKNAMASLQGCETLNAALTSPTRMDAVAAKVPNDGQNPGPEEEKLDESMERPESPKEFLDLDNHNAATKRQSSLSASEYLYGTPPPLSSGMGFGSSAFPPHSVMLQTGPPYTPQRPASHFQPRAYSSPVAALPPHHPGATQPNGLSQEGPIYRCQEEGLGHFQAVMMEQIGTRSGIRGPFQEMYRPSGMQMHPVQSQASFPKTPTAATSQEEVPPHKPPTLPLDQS
Chain of Bromodomain-containing protein 9 (Homo sapiens) (Q9H8M2 whole entry, the tested form may be a part): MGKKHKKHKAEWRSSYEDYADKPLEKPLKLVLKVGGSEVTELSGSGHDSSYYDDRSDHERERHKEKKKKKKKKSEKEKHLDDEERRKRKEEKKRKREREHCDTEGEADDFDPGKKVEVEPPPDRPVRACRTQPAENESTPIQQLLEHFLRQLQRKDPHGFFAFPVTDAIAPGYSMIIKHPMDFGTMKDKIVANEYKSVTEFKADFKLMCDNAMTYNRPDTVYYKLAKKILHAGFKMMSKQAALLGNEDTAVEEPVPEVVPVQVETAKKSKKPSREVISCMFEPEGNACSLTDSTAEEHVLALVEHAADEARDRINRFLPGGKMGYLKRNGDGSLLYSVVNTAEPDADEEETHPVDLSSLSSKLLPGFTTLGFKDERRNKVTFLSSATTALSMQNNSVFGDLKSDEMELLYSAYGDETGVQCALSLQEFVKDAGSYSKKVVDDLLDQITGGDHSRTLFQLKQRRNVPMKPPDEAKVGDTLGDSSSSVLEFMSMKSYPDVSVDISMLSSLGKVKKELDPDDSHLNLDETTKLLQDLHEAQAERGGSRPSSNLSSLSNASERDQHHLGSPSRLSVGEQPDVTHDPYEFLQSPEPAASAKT
Chain of Bromodomain-containing protein 2 (Homo sapiens) (P25440 whole entry, looked up): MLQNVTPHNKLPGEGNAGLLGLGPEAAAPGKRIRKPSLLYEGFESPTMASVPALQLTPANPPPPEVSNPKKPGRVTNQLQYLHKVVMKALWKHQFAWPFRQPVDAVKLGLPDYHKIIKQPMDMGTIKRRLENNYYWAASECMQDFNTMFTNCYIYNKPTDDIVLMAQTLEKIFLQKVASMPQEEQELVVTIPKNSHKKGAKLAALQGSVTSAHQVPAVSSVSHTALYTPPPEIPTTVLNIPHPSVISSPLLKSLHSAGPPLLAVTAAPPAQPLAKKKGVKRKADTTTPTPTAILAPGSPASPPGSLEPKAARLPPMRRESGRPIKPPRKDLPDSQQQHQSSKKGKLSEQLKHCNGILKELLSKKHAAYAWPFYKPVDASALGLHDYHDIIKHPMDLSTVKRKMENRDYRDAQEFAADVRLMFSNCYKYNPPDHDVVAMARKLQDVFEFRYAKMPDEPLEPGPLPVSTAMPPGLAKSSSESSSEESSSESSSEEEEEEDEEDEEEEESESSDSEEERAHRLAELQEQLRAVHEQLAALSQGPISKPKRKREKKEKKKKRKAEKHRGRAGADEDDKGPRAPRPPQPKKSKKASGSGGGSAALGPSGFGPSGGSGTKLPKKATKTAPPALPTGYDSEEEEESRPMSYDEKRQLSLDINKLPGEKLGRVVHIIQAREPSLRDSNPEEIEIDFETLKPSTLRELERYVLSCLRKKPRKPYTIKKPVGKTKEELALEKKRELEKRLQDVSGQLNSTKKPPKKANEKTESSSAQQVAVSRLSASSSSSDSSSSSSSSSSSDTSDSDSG

Cc1cc(=O)n(C)c2cc(N3C(=O)CC[C@@H](NS(=O)(=O)CC(C)C)[C@@H]3c3ccc(Cl)cc3)ccc12
ΔTm [1]: 1.22 °C
ΔTm [2]: -0.02 °C
inhibition [3]: 4.77%
ΔTm [4]: -0.48 °C
ΔTm [5]: 0.17 °C
ΔTm [6]: -0.09 °C and 0.15 °C
ΔTm [7]: -0.19 °C
ΔTm [8]: -0.14 °C
ΔTm [9]: 0.15 °C
ΔTm [10]: 0.38 °C
ΔTm [11]: 0.17 °C and -0.28 °C
ΔTm [12]: 0.82 °C
ΔTm [13]: -0.38 °C
ΔTm [14]: -0.45 °C
ΔTm [15]: 0.15 °C and 0.13 °C
inhibition [16]: 95.6%
ΔTm [17]: 0.35 °C
ΔTm [18]: 0.16 °C
ΔTm [19]: 0.96 °C
inhibition ([20]; Compound concentration 1.25 uM): 1.84%
inhibition ([20]; Compound concentration 4.0 uM): 3.88%
ΔTm [21]: 0.24 °C
ΔTm [22]: 0.76 °C
ΔTm [23]: 0.01 °C
ΔTm [24]: 0.16 °C
ΔTm [25]: 0.44 °C
ΔTm [26]: -0.43 °C
ΔTm [27]: 0.17 °C
inhibition [28]: 10.7%
ΔTm [29]: 0.06 °C
ΔTm [30]: 0.02 °C
ΔTm [31]: 0.6 °C
ΔTm [32]: 0.01 °C
ΔTm [33]: -0.09 °C
ΔTm [34]: 5.28 °C and 8.25 °C and 6.82 °C
ΔTm [35]: -0.26 °C
ΔTm [36]: 0.09 °C
ΔTm [37]: 0.2 °C
ΔTm [38]: -0.12 °C
ΔTm [39]: -0.08 °C
ΔTm [40]: 0.33 °C
ΔTm [41]: 0.03 °C
ΔTm [42]: 0.14 °C
inhibition [43]: 1.4% and 14.2%
ΔTm [44]: 0.27 °C
ΔTm [45]: -0.05 °C
ΔTm [46]: 10.1 °C and 10.7 °C
ΔTm [47]: 0.14 °C
ΔTm [48]: 0.44 °C
ΔTm [49]: -0.21 °C
ΔTm [50]: 1.82 °C
ΔTm [51]: 0.17 °C
ΔTm [52]: 0.69 °C
ΔTm [53]: -0.09 °C
inhibition ([54]; Compound concentration 0.25 uM, Protein concentration 19.0 uM): 3.67%
inhibition ([54]; Compound concentration 0.25 uM, Protein concentration 20.0 uM): 7.02%
inhibition ([54]; Compound concentration 4.0 uM, Protein concentration 19.0 uM): 7.64%
